Results reported in patent US11613538B2, “Method of inhibiting or reducing a viral infection” (PTC Therapeutics, Inc., priority 2009, dated 2023).

System: hypoxia-induced VEGF production in HeLa cells
Test: cells
Assay type: cell-based, human
Details: Homo sapiens, HeLa

CCOC(=O)N1CCc2c([nH]c3ccc(Cl)cc23)C1c1ccc(OCC(O)CNC(=O)c2cccnc2)cc1 (stereo not drawn) [Compound 1468]
EC50: < 0.008 µM

CCOC(=O)N1CCc2c([nH]c3ccc(Cl)cc23)C1c1ccc(OCC(O)CNC(=O)c2ccccn2)cc1 (stereo not drawn) [Compound 1469]
EC50: < 0.008 µM

CCOC(=O)NCC(O)COc1ccc(C2c3[nH]c4ccc(Cl)cc4c3CCN2C(=O)OCC)cc1 (stereo not drawn) [Compound 1470]
EC50: < 0.008 µM

CCCOC(=O)NCC(O)COc1ccc(C2c3[nH]c4ccc(Cl)cc4c3CCN2C(=O)OCC)cc1 (stereo not drawn) [Compound 1471]
EC50: < 0.008 µM

CCOC(=O)N1CCc2c([nH]c3ccc(Cl)cc23)C1c1ccc(OCC(O)CNC(=O)OCCOC)cc1 (stereo not drawn) [Compound 1472]
EC50: < 0.008 µM

CCOC(=O)N1CCc2c([nH]c3ccc(Cl)cc23)C1c1ccc(OCC(O)CNS(=O)(=O)CC)cc1 (stereo not drawn) [Compound 1473]
EC50: < 0.008 µM

CCOC(=O)N1CCc2c([nH]c3ccc(Cl)cc23)C1c1ccc(OCC(O)CNS(=O)(=O)C(C)C)cc1 (stereo not drawn) [Compound 1474]
EC50: 0.008 to 0.04 µM

CCOC(=O)N1CCc2c([nH]c3ccc(Cl)cc23)C1c1ccc(OCC(O)CNS(=O)(=O)C2CC2)cc1 (stereo not drawn) [Compound 1475]
EC50: < 0.008 µM

O=C(Oc1ccc(Cl)cc1)N1CCc2c([nH]c3ccc(Cl)cc23)C1c1ccc(OCCCN2CC[C@@H](O)C2)cc1 (stereo partly drawn) [Compound 1476]
EC50: 0.04 to 0.2 µM

COc1ccc(C2c3[nH]c4ccc(Cl)cc4c3CCN2C(=S)Oc2ccc(C)cc2)cn1 (stereo not drawn) [Compound 1477]
EC50: 0.008 to 0.04 µM

COc1ccc(OC(=O)N2CCc3c([nH]c4ccc(Cl)cc34)C2c2ccc(OC)nc2)cc1 (stereo not drawn) [Compound 1478]
EC50: 0.04 to 0.2 µM

COc1ccc(C2c3[nH]c4ccc(Cl)cc4c3CCN2C(=O)Oc2ccc(Cl)cc2)cn1 (stereo not drawn) [Compound 1479]
EC50: 0.008 to 0.04 µM

CCOC(=O)N1CCc2c([nH]c3ccc(Cl)cc23)C1c1ccc(OC)nc1 (stereo not drawn) [Compound 1480]
EC50: 0.008 to 0.04 µM

COc1ccc(C2c3[nH]c4ccc(Cl)cc4c3CCN2C(=O)OCC(C)C)cn1 (stereo not drawn) [Compound 1481]
EC50: 0.008 to 0.04 µM

CCOC(=O)N1CCc2c([nH]c3ccc(SC)cc23)C1c1ccc(OC)cc1 (stereo not drawn) [Compound 1482]
EC50: 0.04 to 0.2 µM

COc1ccc(C2c3[nH]c4ccc(SC)cc4c3CCN2C(=O)Oc2ccc(Cl)cc2)cc1 (stereo not drawn) [Compound 1483]
EC50: 0.008 to 0.04 µM

COc1ccc(OC(=O)N2CCc3c([nH]c4ccc(SC)cc34)C2c2ccc(OC)cc2)cc1 (stereo not drawn) [Compound 1484]
EC50: 0.04 to 0.2 µM

COc1ccc(C2c3[nH]c4ccc(SC)cc4c3CCN2C(=S)Oc2ccc(F)cc2)cc1 (stereo not drawn) [Compound 1486]
EC50: 0.008 to 0.04 µM

COc1ccc(C2NCCc3c2[nH]c2ccc(SC)cc32)cc1 (stereo not drawn) [Compound 1487]
EC50: > 1 µM

CCOC(=O)N1CCc2c([nH]c3ccc([S+](C)[O-])cc23)C1c1ccc(OC)cc1 (stereo not drawn) [Compound 1488]
EC50: > 1 µM

COc1ccc(C2c3[nH]c4ccc([S+](C)[O-])cc4c3CCN2C(=O)Oc2ccc(Cl)cc2)cc1 (stereo not drawn) [Compound 1489]
EC50: > 1 µM

COc1ccc(OC(=O)N2CCc3c([nH]c4ccc([S+](C)[O-])cc34)C2c2ccc(OC)cc2)cc1 (stereo not drawn) [Compound 1490]
EC50: > 1 µM

COc1ccc(C2c3[nH]c4ccc([S+](C)[O-])cc4c3CCN2C(=O)Oc2ccc(F)cc2)cc1 (stereo not drawn) [Compound 1491]
EC50: > 1 µM

CCC(C)OC(=O)N1CCc2c([nH]c3ccc([S+](C)[O-])cc23)C1c1ccc(OC)cc1 (stereo not drawn) [Compound 1493]
EC50: > 1 µM

COc1ccc(C2c3[nH]c4ccc([S+](C)[O-])cc4c3CCN2C(=O)OC(C)(C)C)cc1 (stereo not drawn) [Compound 1494]
EC50: > 1 µM

COc1ccc(C2NCCc3c2[nH]c2ccc([S+](C)[O-])cc32)cc1 (stereo not drawn) [Compound 1495]
EC50: > 1 µM

CCOC(=O)N1CCc2c([nH]c3ccc(S(C)(=O)=O)cc23)C1c1ccc(OC)cc1 (stereo not drawn) [Compound 1496]
EC50: > 1 µM

COc1ccc(C2c3[nH]c4ccc(S(C)(=O)=O)cc4c3CCN2C(=O)Oc2ccc(Cl)cc2)cc1 (stereo not drawn) [Compound 1497]
EC50: > 1 µM

COc1ccc(OC(=O)N2CCc3c([nH]c4ccc(S(C)(=O)=O)cc34)C2c2ccc(OC)cc2)cc1 (stereo not drawn) [Compound 1498]
EC50: > 1 µM

COc1ccc(C2c3[nH]c4ccc(S(C)(=O)=O)cc4c3CCN2C(=O)Oc2ccc(F)cc2)cc1 (stereo not drawn) [Compound 1499]
EC50: > 1 µM

COc1ccc(C2c3[nH]c4ccc(S(C)(=O)=O)cc4c3CCN2C(=S)Oc2ccc(F)cc2)cc1 (stereo not drawn) [Compound 1500]
EC50: > 1 µM

COc1ccc(C2c3[nH]c4ccc(S(C)(=O)=O)cc4c3CCN2C(=O)OC(C)(C)C)cc1 (stereo not drawn) [Compound 1502]
EC50: > 1 µM

COc1ccc(C2c3[nH]c4ccc(S(C)(=O)=O)cc4c3CCN2C(=S)Oc2ccc(C)cc2)cc1 (stereo not drawn) [Compound 1503]
EC50: > 1 µM

COc1ccc(C2NCCc3c2[nH]c2ccc(S(C)(=O)=O)cc32)cc1 (stereo not drawn) [Compound 1504]
EC50: > 1 µM

COc1ccc(C2c3[nH]c4ccc(Cl)cc4c3CCN2C(=O)[C@H](Cc2ccccc2)NC(C)=O)cc1 (stereo partly drawn) [Compound 1505]
EC50: > 1 µM

CC(=O)N[C@@H](Cc1ccccc1)C(=O)N1CCc2c([nH]c3ccc(Cl)cc23)C1c1ccc(OCCN2CCOCC2)cc1 (stereo partly drawn) [Compound 1506]
EC50: > 1 µM

O=C(/C=C/c1ccccc1)N1CCc2c([nH]c3ccc(Cl)cc23)C1c1ccc(OCCCn2cncn2)cc1 (stereo not drawn) [Compound 1508]
EC50: 0.008 to 0.04 µM

C/C=C/C(=O)N1CCc2c([nH]c3ccc(Cl)cc23)C1c1ccc(OCCCN2CCOCC2)cc1 (stereo not drawn) [Compound 1509]
EC50: 0.04 to 0.2 µM

C/C=C/C(=O)N1CCc2c([nH]c3ccc(Cl)cc23)C1c1ccc(OCCCn2cncn2)cc1 (stereo not drawn) [Compound 1510]
EC50: 0.008 to 0.04 µM

CCOC(=O)N1CCc2c([nH]c3ccc(C#N)cc23)C1c1ccc(OC)cc1 (stereo not drawn) [Compound 1512]
EC50: 0.2 to 1 µM

COc1ccc(C2c3[nH]c4ccc(C#N)cc4c3CCN2C(=O)Oc2ccc(Cl)cc2)cc1 (stereo not drawn) [Compound 1513]
EC50: 0.04 to 0.2 µM

COc1ccc(C2c3[nH]c4ccc(C#N)cc4c3CCN2C(=O)Oc2ccc(F)cc2)cc1 (stereo not drawn) [Compound 1514]
EC50: 0.04 to 0.2 µM

COc1ccc(C2c3[nH]c4ccc(C#N)cc4c3CCN2C(=S)Oc2ccc(F)cc2)cc1 (stereo not drawn) [Compound 1515]
EC50: 0.04 to 0.2 µM

COc1ccc(OC(=O)N2CCc3c([nH]c4ccc(C#N)cc34)C2c2ccc(OC)cc2)cc1 (stereo not drawn) [Compound 1516]
EC50: 0.2 to 1 µM

COc1ccc(C2NCCc3c2[nH]c2ccc(C#N)cc32)cc1 (stereo not drawn) [Compound 1519]
EC50: > 1 µM

CCOC(=O)N1CCc2c([nH]c3cccc(Br)c23)C1c1ccc(OC)cc1 (stereo not drawn) [Compound 1521]
EC50: 0.2 to 1 µM

COc1ccc(C2c3[nH]c4cccc(Br)c4c3CCN2C(=O)OCCF)cc1 (stereo not drawn) [Compound 1522]
EC50: 0.2 to 1 µM

CC#CCOC(=O)N1CCc2c([nH]c3cccc(Br)c23)C1c1ccc(OC)cc1 (stereo not drawn) [Compound 1523]
EC50: 0.04 to 0.2 µM

COc1ccc(C2c3[nH]c4cccc(Br)c4c3CCN2C(=O)Oc2ccc(F)cc2)cc1 (stereo not drawn) [Compound 1524]
EC50: 0.04 to 0.2 µM

COc1ccc(C2c3[nH]c4cccc(Br)c4c3CCN2C(=O)Oc2ccc(Cl)cc2)cc1 (stereo not drawn) [Compound 1525]
EC50: 0.04 to 0.2 µM

COc1ccc(C2c3[nH]c4cccc(Br)c4c3CCN2C(=O)Oc2ccc(Br)cc2)cc1 (stereo not drawn) [Compound 1526]
EC50: 0.04 to 0.2 µM

COc1ccc(OC(=O)N2CCc3c([nH]c4cccc(Br)c34)C2c2ccc(OC)cc2)cc1 (stereo not drawn) [Compound 1527]
EC50: 0.2 to 1 µM

COc1ccc(C2c3[nH]c4cccc(Br)c4c3CCN2C(=O)Oc2ccccc2Cl)cc1 (stereo not drawn) [Compound 1528]
EC50: > 1 µM

COc1ccc(C2c3[nH]c4cccc(Cl)c4c3CCN2C(=O)OCCF)cc1 (stereo not drawn) [Compound 1529]
EC50: 0.2 to 1 µM

CC#CCOC(=O)N1CCc2c([nH]c3cccc(Cl)c23)C1c1ccc(OC)cc1 (stereo not drawn) [Compound 1530]
EC50: 0.04 to 0.2 µM

COc1ccc(C2c3[nH]c4cccc(Cl)c4c3CCN2C(=O)Oc2ccc(Cl)cc2)cc1 (stereo not drawn) [Compound 1531]
EC50: 0.04 to 0.2 µM

COc1ccc(C2c3[nH]c4cccc(Cl)c4c3CCN2C(=O)Oc2ccc(Br)cc2)cc1 (stereo not drawn) [Compound 1532]
EC50: 0.04 to 0.2 µM

COc1ccc(C2c3[nH]c4cccc(Cl)c4c3CCN2C(=O)Oc2ccc(F)cc2)cc1 (stereo not drawn) [Compound 1533]
EC50: 0.04 to 0.2 µM

COc1ccc(OC(=O)N2CCc3c([nH]c4cccc(Cl)c34)C2c2ccc(OC)cc2)cc1 (stereo not drawn) [Compound 1534]
EC50: 0.2 to 1 µM

O=C(Oc1ccc(Cl)cc1)N1CCc2c([nH]c3ccc(Cl)cc23)C1c1ccc(OCCCN2CCC(O)CC2)cc1 (stereo not drawn) [Compound 1537]
EC50: < 0.008 µM

O=C(Oc1ccc(C2NCCc3c2[nH]c2ccc(Cl)cc32)cc1)c1ccccc1 (stereo not drawn) [Compound 1540]
EC50: 0.008 to 0.04 µM

CC(C)=CC(=O)N1CCc2c([nH]c3ccc(Cl)cc23)C1c1ccc(OCCCn2cncn2)cc1 (stereo not drawn) [Compound 1542]
EC50: < 0.008 µM

CCOC(=O)N1CCc2c([nH]c3ccc(Cl)cc23)C1c1ccc(OCC#N)cc1 (stereo not drawn) [Compound 1543]
EC50: < 0.008 µM

N#CCOc1ccc(C2c3[nH]c4ccc(Cl)cc4c3CCN2C(=O)OCCF)cc1 (stereo not drawn) [Compound 1544]
EC50: 0.008 to 0.04 µM

N#CCOc1ccc(C2c3[nH]c4ccc(Cl)cc4c3CCN2C(=O)Oc2ccc(F)cc2)cc1 (stereo not drawn) [Compound 1548]
EC50: 0.008 to 0.04 µM

N#CCOc1ccc(C2NCCc3c2[nH]c2ccc(Cl)cc32)cc1 (stereo not drawn) [Compound 1550]
EC50: 0.2 to 1 µM

CS(=O)(=O)CCCOc1ccc(C2c3[nH]c4ccc(Cl)cc4c3CCN2C(=O)Oc2ccc(Cl)cc2)cc1 (stereo not drawn) [Compound 1551]
EC50: < 0.008 µM

CN1CCC(OCCCOc2ccc(C3c4[nH]c5ccc(Cl)cc5c4CCN3C(=O)Oc3ccc(Cl)cc3)cc2)CC1 (stereo not drawn) [Compound 1554]
EC50: > 1 µM

O=C(Oc1ccc(Cl)cc1)N1CCc2c([nH]c3ccc(Cl)cc23)C1c1ccc(OCCCOCCN2CCOCC2)cc1 (stereo not drawn) [Compound 1555]
EC50: < 0.008 µM

C[Si](C)(C)CCS(=O)(=O)N1CCC(Oc2ccc(C3NCCc4c3[nH]c3ccc(Cl)cc43)cc2)CC1 (stereo not drawn) [Compound 1556]
EC50: 0.04 to 0.2 µM

CCOC(=O)N1CCc2c([nH]c3ccc(Cl)cc23)[C@@H]1c1ccc(Oc2ncccn2)cc1 [Compound 1573]
EC50: < 0.008 µM

CCOC(=O)N1CCc2c([nH]c3ccc(Cl)cc23)[C@@H]1c1ccc(Oc2cnccn2)cc1 [Compound 1574]
EC50: < 0.008 µM

CCOC(=O)N1CCc2c([nH]c3ccc(Cl)cc23)[C@@H]1c1ccc(Oc2ccc3ccccc3n2)cc1 [Compound 1575]
EC50: < 0.008 µM

CC#CCOC(=O)N1CCc2c([nH]c3ccc(Cl)cc23)C1c1ccc(OC2CCOCC2)cc1 (stereo not drawn) [Compound 1576]
EC50: < 0.008 µM

CC#CCOC(=O)N1CCc2c([nH]c3ccc(Cl)cc23)C1c1ccc(OC2CCN(S(=O)(=O)CC[Si](C)(C)C)CC2)cc1 (stereo not drawn) [Compound 1579]
EC50: < 0.008 µM
